“Also recorded” adds a separate entry of the source.
What was measured:
Chk2 = Chk2 protein content by immunoblot in B16-F10 cells; type: cell-based, mouse; details: PD-L1^KO but not CTRL B16-F10 cells
ID8agg cells = experiment: Erlotinib plus olaparib in ID8agg cells (MTT); type: cell-based, mouse
Procedure: 1,000 ID8agg cells were plated per well in 96 well plates. Cells were treated with 1, 2, or 3 μM of erlotinib and 5 μM or olaparib.

[1] = tested on: RT4 human bladder cancer cells; experiment: In vitro viability (MTT) of CTRL versus PD-L1^KO RT4 cells; type: cell-based; details: for sensitivity of PD-L1^KO versus control RT4 cells to the agent: monotherapy
Procedure: (§1) Cells (1×10^3) were plated in 96 well plastic culture plates in respective medium and treated for 5 days with DDRi or 3 days with gemcitabine at indicated concentrations. Drug concentrations were carefully optimized in preliminary work not shown. Cell viability was by MTT (3-(4,5-dimethylthiazol-2-yl)-2,5-diphenyl tetrazolium bromide) at 5 mg/ml. Absorbance was measured at 540 nm. Results are presented as a mean+/−SEM of ≥6 replicates. Total cells and viability were confirmed using a Vi-Cell-XR (Beckman Coulter).

[2] = tested on: ID8agg murine ovarian cancer cells; experiment: In vitro viability (MTT) of CTRL versus PD-L1^KO ID8agg cells; type: cell-based, mouse; details: for sensitivity of PD-L1^KO versus control ID8agg cells to the agent: monotherapy
Procedure: as §1

γH2AX in RT4 cells = experiment: γH2AX immunoblot (DNA damage) in RT4 cells; type: cell-based, human
Procedure: (§2) Immunoblotting was performed as described (Clark et al., 2016; Gupta et al., 2016). Protein was measured by BCA (ThermoFisher). Cell Signaling antibodies were phospho-histone H2A.X (#9718), phospho-Chk1^Ser345 (#2348), phosph-Chk2^Thr68 (#2197), phospho-ATM^Ser1981 (#5883), phospho-ATR^Ser428 (#2853), total-Chk1 (#2360), total-chk2 (#2662), total-ATM (#2873), total-ATR (#13934), total-NBS1 (#14956), total-Rad50 (#3427), RAD51, vinculin (#13901), beta-actin (#12620), human-PD-L1 (#13684), mouse-PD-L1. Abcam antibodies were (ab3801) and (ab80276) and total-BRCA1 was R&D MAB22101. All were used as per manufacturer's recommendation.

γH2AX in ID8agg cells = experiment: γH2AX immunoblot (DNA damage) in ID8agg cells; type: cell-based, mouse
Procedure: as §2

PD-L1 = PD-L1 after DNA damaging agents; type: cell-based
[3] = tested on: MB49 murine bladder cancer cells; experiment: In vitro viability (MTT) of CTRL versus PD-L1^KO MB49 cells; type: cell-based, mouse
Procedure: as §1

[4] = tested on: B16 murine melanoma cells; experiment: In vitro viability (MTT) of CTRL versus PD-L1^KO B16 cells; type: cell-based, mouse
Procedure: as §1

[5] = tested on: CTRL or PD-L1^KO MB49 tumors; experiment: MB49 tumor growth in NSG mice; type: in vivo, mouse; details: PD-L1^KO but not control MB49 tumors
Procedure: (§3) NSG mice were challenged with MB49 (0.3×10^6 cells) subcutaneously on opposite flanks. Olaparib (daily 25 mg/kg, 4% DMSO) was injected intraperitoneally on days 3-11. 4T1 (0.5×10^6 cells) were injected into mammary fat pads of NSG mice with Matrigel (1:1, Corning). Rabusertib (LY2602618, 4% DMSO) was administered intraperitoneally on day 3 (10 mg/kg) and days 10 and 17 (1 mg/kg).

[6] = tested on: CTRL or PD-L1^KO B16 tumors; experiment: B16 tumor growth in wild type or RAG2^KO mice; type: in vivo, mouse
Procedure: B16 cells were injected subcutaneously on opposite flanks into BL6 (0.5×10^6 cells) or RAG2^KO mice (0.4×10^6). Olaparib was administered daily intraperitoneally (50 mg/kg, 4% DMSO) on days 3-13. Tumors were measured with Vernier calipers and volume calculated as (length×width^2)/2. Mice were sacrificed when tumors reached ˜1500 mm^3 or if distressed.

[7] = tested on: 4T1 murine breast cancer cells; experiment: In vitro viability (MTT) of CTRL versus PD-L1^lo 4T1 cells; type: cell-based, mouse; details: listed as Chk1i
Procedure: as §1

[8] = tested on: human MDA-MB-231 triple negative breast cancer cells; experiment: In vitro sensitivity of PD-L1^lo versus CTRL MDA-MB-231 cells; type: cell-based
[9] = tested on: CTRL or PD-L1^lo 4T1 tumors; experiment: 4T1 tumor growth in NSG mice; type: in vivo, mouse; details: PD-L1^lo but not control 4T1 tumors, NSG females
Procedure: as §3

[10] = tested on: UV induced TpN^61R derived CD274^+/+ or CD274^−/− melanoma cells; experiment: Viability of de novo Nras CD274^+/+ versus CD274^−/− melanoma cells; type: cell-based, mouse; details: in vitro
From the text: (§4) FIGS. 26A-H: De novo PD-L1^KO tumors phenocopy important aspects of genetic PD-L1 depletion in established tumors. FIG. 26A, Melanoma-free survival of melanocyte specific CD274^fl,fl TpN^61R (KO) versus littermate (WT) autochthonous mice under conditions shown. FIG. 26B, Validation of PD-L1 expression by immunoblot (IB) of melanoma cells derived from UV induced (4.5 Kj/m^2) WT (CD274^+/+) or melanocyte specific CD274^KO (CD274^−/−) mice±in vitro interferon (IFN)-γ treatment. Viability curves of CD274^+/+ versus CD274^−/− cells treated with the selective Chk1 inhibitors FIG. 26C, prexasertib […] or FIG. 26D, rabusertib (LY2603618) in vitro at indicated concentrations. FIG. 26E, IB analysis of PD-L1, ATM, Chk2, and γH2AX of vehicle or rabusertib-treated CD274^+/+ and CD274^−/− cell lines. FIGS. 26F-H, Tumor growth curves in WT C57BL/6J mice (n=10 tumors/group) challenged with UV induced TpN^61R derived CD274^+/+ or CD274^−/− melanoma cells and treated with rabusertib (Chk1i, LY2603618) on the indicated treatment schedule. P values, two-way ANOVA.

[11] = tested on: TpN^61R derived CD274^+/+ or CD274^−/− melanoma tumors; experiment: Growth of de novo PD-L1 null versus replete melanoma in C57BL/6J mice; type: in vivo, mouse; details: C57BL/6J wild type mice
From the text: as §4

[12] = tested on: CTRL and PD-L1^KO RT4 cells; experiment: Viability of RT4 cells treated with Chk1 inhibitor plus atezolizumab; type: cell-based, human; details: in vitro, absence of immune cells
Procedure: (§5) FIGS. 27A-H: Anti-PD-L1 antibodies mimic genetic PD-L1 depletion to impair tumor cell-intrinsic DDR signals and promote sensitivity to Chk1 inhibition in vitro and in vivo. Cell viability of FIG. 27A, CTRL and FIG. 27B, PD-L1^KORT4 cells treated with LY2603618 (Chk1 inhibitor) as shown plus IgG1 isotype or atezolizumab (atezo, 3 μg/ml) for 72 hours in vitro. Mean+SEM, n=6 replicates, ***, P<0.001, unpaired t-test. FIG. 27C, Immunoblot (IB) analysis of ATM, Chk2, γH2AX and vinculin (VINC) of RT4 cells treated in vitro with isotype, atezolizumab, Chk1i, or their combination. FIG. 27D, Viability of 4T1 cells as in panel A substituting anti-murine PD-L1 and isotype controls. FIG. 27E, IB of 4T1 as in panel FIG. 27C. FIG. 27F, Tumor curves of NSG mice (n=10 tumors/group) challenged with 4T1 tumor cells and treated with Chk1i±αPD-L1. FIG. 27G, Tumor curves and FIG. 27H, tumor weights in WT […] mice challenged and treated as in panel FIG. 27F. P values, two-way ANOVA.

4T1 tumors = 4T1 tumors in mice treated with Chk1i ± αPD-L1; type: in vivo, mouse; details: wild type mice
Procedure: as §5

`CO/C1=C\C(C)=C\[C@@H](C)[C@@H](O)[C@@H](C)C/C(C)=C/C=C/[C@H](OC)[C@@H]([C@@H](C)[C@@H](O)[C@H](C)[C@@]2(O)C[C@@H](O)[C@H](C)[C@@H](C(C)C)O2)OC1=O` [Bafilomycin A1] was tested, and the Chk2 accumulation (Chk2) was “led to Chk2 accumulation”.
For `C#Cc1cccc(Nc2ncnc3cc(OCCOC)c(OCCOC)cc23)c1` [erlotinib], the “olaparib activity in combination” value (ID8agg cells; FIG. 46A) was “Olaparib activity is seen with erlotinib” and the “PD-L1 depletion over time” value (ID8agg cells; previous western, 24 hours, but not at 48 hours) was “only depletes PD-L1 for short periods of time”.
For `Nc1ccn([C@@H]2O[C@H](CO)[C@@H](O)C2(F)F)c(=O)n1` [gemcitabine], the “fold more sensitive to gemcitabine, PD-L1^KO versus control cells” value ([1]; RT4 cells) was 2 fold, the “sensitivity of PD-L1^KO versus control RT4 cells to the agent” value [1] was “substantially lower viability” and the “fold more sensitive to gemcitabine, PD-L1^KO versus control cells” value ([2]; ID8agg cells) was 29 fold. For the same compound, the “γH2AX following treatment, PD-L1^KO versus control cells” value (γH2AX in RT4 cells) was “markedly elevated; also recorded: accumulated more γH2AX”, the “γH2AX following treatment, PD-L1^KO versus control cells” value (γH2AX in ID8agg cells) was “markedly elevated” and the “PD-L1 after DNA damaging agent” value (PD-L1) was “increased PD-L1”.
In the case of `O=C(c1cc(Cc2n[nH]c(=O)c3ccccc23)ccc1F)N1CCN(C(=O)C2CC2)CC1` [olaparib], the “sensitivity of PD-L1^KO versus control RT4 cells to the agent” value [1] is reported as “Minimal effects”, the “sensitivity of PD-L1^KO versus control ID8agg cells to the agent” value [2] is reported as “Minimal effects” and the “sensitivity of PD-L1^KO versus control MB49 cells to the agent” value [3] is reported as “more sensitive”. The “cytotoxicity against PD-L1^KO versus control B16 cells” value [4] was “Moderate differences”, the “tumor growth and weight after treatment” value [5] was “robustly growth inhibited and weighed less” and the “limiting PD-L1^KO B16 tumors” value ([6]; RAG2^KO mice lacking adaptive immunity) was “ineffective”. The “control of PD-L1^KO versus control B16 growth” value ([6]; wild type mice) was “significantly more effective”.
For `Cc1cnc(NC(=O)Nc2cc(Br)c(C)cc2OC[C@@H]2CNCCO2)cn1` [rabusertib], the “cytotoxicity in PD-L1^KO versus control RT4 cells” value [1] was “over 15 fold”, the “sensitivity of PD-L1^KO versus control RT4 cells to the agent” value [1] was “striking cytotoxicity” and the “sensitivity of PD-L1^KO versus control ID8agg cells to the agent” value ([2]; listed as Chk1i) was “enhanced sensitivity”. For the same compound, the “sensitivity of PD-L1^lo versus control 4T1 cells to the agent” value [7] was “significantly growth inhibited; also recorded: enhanced sensitivity”, the “cytotoxicity against PD-L1^KO versus control B16 cells” value [4] was “striking cytotoxicity” and the “sensitivity of PD-L1^lo versus CTRL MDA-MB-231 cells” value [8] was “more sensitive”. The “tumor sensitivity to single agent treatment” value [9] was “particularly sensitive”, the “synthetic lethality in induced PD-L1^KO tumors” value [10] was “exhibited synthetic lethality” and the “control of in vivo growth, PD-L1 null versus PD-L1 replete tumors” value [11] was “controlled in vivo growth significantly better”. For the same compound, the “viability of RT4 cells, single agent” value [12] was “expected dose-response toxicity”, the “4T1 tumors in vivo” value (4T1 tumors) was “failed to benefit” and the “PD-L1 after DNA damaging agent” value (PD-L1) was “increased PD-L1”.
